Experimental findings from US20250152610A1, “IMIDAZOLATE GOLD COMPOUNDS FOR THE TREATMENT OF LUNG CANCER” (University of Cincinnati, priority 2022, published 2025) are described below.

In test [1] the test system is H522 KRAS-WT lung cancer cells. The experiment in a line: MTT cell viability rescue with ferrostatin-1, L-cysteine or NAC. It counts as cell-based, human. The note with it: 48 hours, DM20 10 μM, CS47 10 uM, auranofin 1 μM; for rescue of cell viability by ferrostatin-1 (Fer-1): FIG. 4A; for rescue of cell viability by cysteine: FIG. 4B; for rescue of cell viability by n-acetyl-cysteine (NAC): FIG. 4C. The procedure: H522 KRAS-WT lung cancer cells were treated with DM20 (10 μM), CS47 (10 uM), or auranofin (1 μM) in combination with ferrostatin-1, L-cysteine, or n-acetyl-cysteine (all mM, 48 hours of treatment, in quadruplicate). Statistics indicate one-way ANOVA followed by Sidak's multiple comparisons analysis with ns, p>0.05; *, p<0.05: **, p<0.01; ***, p<0.001 and ****, p<0.0001.

The subject of another test is GPX4. As to conditions: H522 KRAS-WT and A546 KM cells, 10 μM, 48 hours; FIG. 5A. The procedure:
H522 KRAS-WT lung cancer cells and A546 KM lung cancer cells were treated with vehicle (negative control), DM20 (10 μM), CS47 (10 μM), and auranofin (1 μM, positive control) for 48 hours. Protein lysates were extracted from the cells and Western blot analysis was carried out to detect expression of TXNRD1 and GPX4 in the cell lines after treatment, with GAPDH expression detected as a control.

Test [2] concerns H193 and H1395 KRAS-WT lung cancer cells. The note with it: for lipid peroxidation (oxidized C11-BODIPY) in KRAS-WT cells: 10 μM, 48 hours, FIG. 5B; for ferroptosis induction in KRAS-WT lung cancer cells (overall conclusion): taken together from Examples 1-4. Here is the method:
H157 and A549 KM lung cancer cells and H193 and H1395 KRAS-WT lung cancer cells were treated with vehicle (negative control), DM20 (10 μM), CS47 (10 μM), or auranofin (1 μM positive control) for 48 hours. Cells were then stained with DAP, oxidized C11-BODIPY, and reduced C11-BODIPY. C11-BODIPY is a ferroptosis lipid sensor that switches from red to green fluorescence upon oxidation.

Test [3] has as its system KRAS-WT lung cancer cells (H1395, H522, H661, H1993, H332, H820) versus KM lung cancer cells (H157, H1264, H2122, H460, A549). The experiment in a line: MTT cell viability assay on panel of KRAS-WT and KM lung cancer cell lines. It counts as cell-based, human. As to conditions: 1 nM to 100 μM; FIGS. 3A-3F; unpaired t test. Here is the method: Experiments were carried out to determine whether DM20 and CS47 are reversible TrxR inhibitors capable of triggering ferroptosis in KRAS-WT lung cancer cells. DM20 and CS47 in concentrations ranging from 1 nM to 100 μM were tested on a panel of KM and KRAS-WT cell lines in MTT cell viability assays. The tested KM cell lines included H157, H1264, H2122, H460, and A549 cells. The tested KRAS-WT cell lines included H1395, H522, H661, H1993, H332, and H820. Auranofin was included as a positive drug control and the human lung […] fibroblast cell line IMR90 was included as a normal, non-transformed cell counterpart. MTT viability and IC50 values were determined, results for which are shown in FIGS. 3A-3F, wherein each line or symbol corresponds to a human […] cell line. Statistics indicate unpaired t test with *, p<0.05, and **, p<0.01.
A general note: Formazan colour is commonly taken as a measure of viable cells.

Structures are written as SMILES.

On to `Clc1nc[n]([Au][PH](c2ccccc2)(c2ccccc2)c2ccccc2)c1Cl` [CS47, 4,5-dichloro-imidazolate-1yl-gold(I)-triphenylphosphane], for which, in test [1], the “rescue of cell viability by ferrostatin-1 (Fer-1)” value (from here on “rescue of cell viability … (Fer-1)”) is “can rescue the cell viability”, the “rescue of cell viability by cysteine” value was “can rescue the cell viability” and the “rescue of cell viability by n-acetyl-cysteine (NAC)” value (“rescue of cell viability … (NAC)” for short) was “can rescue the cell viability”. For the same compound, the “GPX4 expression after treatment (Western blot)” value in the test with GPX4 was “depletes GPX4 expression”. Also, in test [2], the “lipid peroxidation (oxidized C11-BODIPY) in KRAS-WT cells” value is “induces lipid peroxidation” and the “ferroptosis induction in KRAS-WT lung cancer cells (overall conclusion)” value is “induce ferroptosis”. Moreover, the “sensitivity of KRAS-WT lung cancer cells compared with KM lung cancer cells (MTT viability, IC50)” value in test [3] is “significantly and selectively more sensitive”.

`N#Cc1nc[n]([Au][PH](c2ccccc2)(c2ccccc2)c2ccccc2)c1C#N` [DM20, 4,5-dicyano-imidazolate-1yl-gold(I)-triphenylphosphane]: in test [1], the “rescue of cell viability … (Fer-1)” value was “can rescue the cell viability”, the “rescue of cell viability by cysteine” value is recorded as “can rescue the cell viability” and the “rescue of cell viability … (NAC)” value is “can rescue the cell viability”. In the test on GPX4, the “GPX4 expression after treatment (Western blot)” value is reported as “depletes GPX4 expression”. Moreover, in test [2], the “lipid peroxidation (oxidized C11-BODIPY) in KRAS-WT cells” value is “induces lipid peroxidation” and the “ferroptosis induction in KRAS-WT lung cancer cells (overall conclusion)” value is “induce ferroptosis”. Moreover, the “sensitivity of KRAS-WT lung cancer cells compared with KM lung cancer cells (MTT viability, IC50)” value in test [3] is “significantly and selectively more sensitive”.

With `CC(=O)OC[C@H]1O[C@@H]([S-])[C@H](OC(C)=O)[C@@H](OC(C)=O)[C@@H]1OC(C)=O.CCP(CC)CC.[Au+]` [auranofin, reference compound], in test [1], the “rescue of cell viability … (Fer-1)” value was “can rescue the cell viability”, the “rescue of cell viability by cysteine” value is “can rescue the cell viability” and the “rescue of cell viability … (NAC)” value is “can rescue the cell viability”. In addition, in test [3], the “sensitivity of KRAS-WT lung cancer cells compared with KM lung cancer cells (MTT viability, IC50)” value is “significantly and selectively more sensitive”.
